Measurements from patent publication US9469650B2, “Melampomagnolide B derivatives” (BOARD OF TRUSTEES OF THE UNIVERSITY OF ARKANSAS, priority 2013, dated 2016).

Assays:
A498 = assay: panel of 60 human tumor cell lines, growth inhibition (Renal Cancer); details: A498
SF-268 = assay: panel of 60 human tumor cell lines, growth inhibition (CNS Cancer); details: SF-268
SW-620 = assay: panel of 60 human tumor cell lines, growth inhibition (Colon Cancer); details: SW-620
SNB-19 = assay: panel of 60 human tumor cell lines, growth inhibition (CNS Cancer); details: SNB-19
HCC-2998 = assay: panel of 60 human tumor cell lines, growth inhibition (Colon Cancer); details: HCC-2998
SF-295 = assay: panel of 60 human tumor cell lines, growth inhibition (CNS Cancer); details: SF-295
CAKI-1 = assay: panel of 60 human tumor cell lines, growth inhibition (Renal Cancer); details: CAKI-1
MDA-MB-231/ATCC = assay: panel of 60 human tumor cell lines, growth inhibition (Breast Cancer); details: MDA-MB-231/ATCC
OVCAR-5 = assay: panel of 60 human tumor cell lines, growth inhibition (Ovarian Cancer); details: OVCAR-5
HOP-92 = assay: panel of 60 human tumor cell lines, growth inhibition (Non-Small Cell Lung Cancer); details: HOP-92

Compound: C=C1C(=O)O[C@H]2[C@H]1CC/C(COC(=O)N1CCN(C)CC1)=C\CC[C@@]1(C)O[C@@H]21 [JVM 2-44]
- GI50 (A498): 10.2 µM
- TGI (A498): 3.47E−5
- Mean Optical Densities (A498; Log10 Concentration −4.0): 0.967
- Percent Growth (A498; Log10 Concentration −4.0): −43%
- Mean Optical Densities (A498; Log10 Concentration −5.0): 2.150
- Percent Growth (A498; Log10 Concentration −5.0): 51%
- Mean Optical Densities (A498; Log10 Concentration −6.0): 2.296
- Percent Growth (A498; Log10 Concentration −6.0): 67%
- Mean Optical Densities (A498; Log10 Concentration −7.0): 2.301
- Percent Growth (A498; Log10 Concentration −7.0): 68%
- Mean Optical Densities (A498; Log10 Concentration −8.0): 2.357
- Percent Growth (A498; Log10 Concentration −8.0): 74%
- GI50 (SF-268): 13.5 µM
- TGI (SF-268): 3.19E−5
- Mean Optical Densities (SF-268; Log10 Concentration −4.0): 0.188
- Percent Growth (SF-268; Log10 Concentration −4.0): −66%
- Mean Optical Densities (SF-268; Log10 Concentration −5.0): 1.432
- Percent Growth (SF-268; Log10 Concentration −5.0): 67%
- Mean Optical Densities (SF-268; Log10 Concentration −6.0): 1.625
- Percent Growth (SF-268; Log10 Concentration −6.0): 97%
- Mean Optical Densities (SF-268; Log10 Concentration −7.0): 1.839
- Percent Growth (SF-268; Log10 Concentration −7.0): 9B
- Mean Optical Densities (SF-268; Log10 Concentration −8.0): 1.843
- Percent Growth (SF-268; Log10 Concentration −8.0): 99%
- GI50 (SW-620): 3.67 µM
- TGI (SW-620): 1.49E−5
- Mean Optical Densities (SW-620; Log10 Concentration −4.0): 0.080
- Percent Growth (SW-620; Log10 Concentration −4.0): −78%
- Mean Optical Densities (SW-620; Log10 Concentration −5.0): 0.753
- Percent Growth (SW-620; Log10 Concentration −5.0): 16%
- Mean Optical Densities (SW-620; Log10 Concentration −6.0): 2.599
- Percent Growth (SW-620; Log10 Concentration −6.0): 94%
- Mean Optical Densities (SW-620; Log10 Concentration −7.0): 2.683
- Percent Growth (SW-620; Log10 Concentration −7.0): 97%
- Mean Optical Densities (SW-620; Log10 Concentration −8.0): 2.698
- Percent Growth (SW-620; Log10 Concentration −8.0): 98%
- GI50 (SNB-19): 19.6 µM
- TGI (SNB-19): 6.35E−5
- Mean Optical Densities (SNB-19; Log10 Concentration −4.0): 0.513
- Percent Growth (SNB-19; Log10 Concentration −4.0): −19%
- Mean Optical Densities (SNB-19; Log10 Concentration −5.0): 1.860
- Percent Growth (SNB-19; Log10 Concentration −5.0): 79%
- Mean Optical Densities (SNB-19; Log10 Concentration −6.0): 2.030
- Percent Growth (SNB-19; Log10 Concentration −6.0): 90%
- Mean Optical Densities (SNB-19; Log10 Concentration −7.0): 2.075
- Percent Growth (SNB-19; Log10 Concentration −7.0): 93%
- Mean Optical Densities (SNB-19; Log10 Concentration −8.0): 2.149
- Percent Growth (SNB-19; Log10 Concentration −8.0): 97%
- GI50 (HCC-2998): 17.5 µM
- TGI (HCC-2998): 3.55E−5
- Mean Optical Densities (HCC-2998; Log10 Concentration −4.0): 0.178
- Percent Growth (HCC-2998; Log10 Concentration −4.0): −73%
- Mean Optical Densities (HCC-2998; Log10 Concentration −5.0): 1.871
- Percent Growth (HCC-2998; Log10 Concentration −5.0): 90%
- Mean Optical Densities (HCC-2998; Log10 Concentration −6.0): 2.049
- Percent Growth (HCC-2998; Log10 Concentration −6.0): 103%
- Mean Optical Densities (HCC-2998; Log10 Concentration −7.0): 1.999
- Percent Growth (HCC-2998; Log10 Concentration −7.0): 99%
- Mean Optical Densities (HCC-2998; Log10 Concentration −8.0): 1.968
- Percent Growth (HCC-2998; Log10 Concentration −8.0): 97%
- GI50 (SF-295): 70.7 µM
- TGI (SF-295): >1.00E−4
- Mean Optical Densities (SF-295; Log10 Concentration −4.0): 1.767
- Percent Growth (SF-295; Log10 Concentration −4.0): 43%
- Mean Optical Densities (SF-295; Log10 Concentration −5.0): 2.724
- Percent Growth (SF-295; Log10 Concentration −5.0): 87%
- Mean Optical Densities (SF-295; Log10 Concentration −6.0): 2.913
- Percent Growth (SF-295; Log10 Concentration −6.0): 96%
- Mean Optical Densities (SF-295; Log10 Concentration −7.0): 2.707
- Percent Growth (SF-295; Log10 Concentration −7.0): 87%
- Mean Optical Densities (SF-295; Log10 Concentration −8.0): 2.920
- Percent Growth (SF-295; Log10 Concentration −8.0): 96%
- GI50 (CAKI-1): 4 µM
- TGI (CAKI-1): 1.67E−5
- Mean Optical Densities (CAKI-1; Log10 Concentration −4.0): 0.032
- Percent Growth (CAKI-1; Log10 Concentration −4.0): −95%
- Mean Optical Densities (CAKI-1; Log10 Concentration −5.0): 1.287
- Percent Growth (CAKI-1; Log10 Concentration −5.0): 27%
- Mean Optical Densities (CAKI-1; Log10 Concentration −6.0): 2.593
- Percent Growth (CAKI-1; Log10 Concentration −6.0): 84%
- Mean Optical Densities (CAKI-1; Log10 Concentration −7.0): 2.649
- Percent Growth (CAKI-1; Log10 Concentration −7.0): 87%
- Mean Optical Densities (CAKI-1; Log10 Concentration −8.0): 2.814
- Percent Growth (CAKI-1; Log10 Concentration −8.0): 94%
- GI50 (MDA-MB-231/ATCC): 10.4 µM
- TGI (MDA-MB-231/ATCC): 2.64E−5
- Mean Optical Densities (MDA-MB-231/ATCC; Log10 Concentration −4.0): 0.200
- Percent Growth (MDA-MB-231/ATCC; Log10 Concentration −4.0): −72%
- Mean Optical Densities (MDA-MB-231/ATCC; Log10 Concentration −5.0): 1.153
- Percent Growth (MDA-MB-231/ATCC; Log10 Concentration −5.0): 52%
- Mean Optical Densities (MDA-MB-231/ATCC; Log10 Concentration −6.0): 1.525
- Percent Growth (MDA-MB-231/ATCC; Log10 Concentration −6.0): 95%
- Mean Optical Densities (MDA-MB-231/ATCC; Log10 Concentration −7.0): 1.568
- Percent Growth (MDA-MB-231/ATCC; Log10 Concentration −7.0): 106%
- Mean Optical Densities (MDA-MB-231/ATCC; Log10 Concentration −8.0): 1.619
- Percent Growth (MDA-MB-231/ATCC; Log10 Concentration −8.0): 106%
- GI50 (OVCAR-5): 13.4 µM
- TGI (OVCAR-5): 3.03E−5
- Mean Optical Densities (OVCAR-5; Log10 Concentration −4.0): 0.201
- Percent Growth (OVCAR-5; Log10 Concentration −4.0): −73%
- Mean Optical Densities (OVCAR-5; Log10 Concentration −5.0): 1.240
- Percent Growth (OVCAR-5; Log10 Concentration −5.0): 68%
- Mean Optical Densities (OVCAR-5; Log10 Concentration −6.0): 1.400
- Percent Growth (OVCAR-5; Log10 Concentration −6.0): 89%
- Mean Optical Densities (OVCAR-5; Log10 Concentration −7.0): 1.404
- Percent Growth (OVCAR-5; Log10 Concentration −7.0): 90%
- Mean Optical Densities (OVCAR-5; Log10 Concentration −8.0): 1.415
- Percent Growth (OVCAR-5; Log10 Concentration −8.0): 91%
- GI50 (HOP-92): 2.95 µM
- TGI (HOP-92): 1.48E−5
- Mean Optical Densities (HOP-92; Log10 Concentration −4.0): 0.116
- Percent Growth (HOP-92; Log10 Concentration −4.0): −87%
- Mean Optical Densities (HOP-92; Log10 Concentration −5.0): 0.995
